# Experimental data taken from US11959088B2, “Modifying protein production in plants” (MEDICAGO INC., priority 2014, dated 2024).
# Tests used:
# [1] = test system: Nicotiana benthamiana plants; test: BAP treatment after seedling transplantation: primary and secondary leaf biomass; format: in vivo
# [2] = test system: Nicotiana benthamiana plants; test: BAP treatment after seedling transplantation: HA production (hemagglutination assay) after agroinfiltration with construct 484; format: in vivo; conditions: 500 ppm after 7 and 12 days
# [3] = 500 ppm 7 days after transplantation
compound,measurement,setting,value
"c1ccc(CNc2ncnc3nc[nH]c23)cc1 [BAP, 6-benzylaminopurine]",effect on primary biomass,"[1]; 100, 500 or 1,000 ppm, 7 and/or 12 days after transplantation (FIG. 9)",little effect
same,effect on secondary biomass production,"[1]; 100 or 500 ppm, 7 and/or 12 days after transplantation (FIG. 9)",significant positive effect
same,increase for primary biomass compared to control,[1]; [3],less than 10%
same,relative increase of secondary leaf biomass compared to control (non-treated) plants,[1]; [3],about 37.5%
same,effect on secondary biomass production,"[1]; 1,000 ppm treatment (FIG. 9)",no positive impact
same,secondary leaf biomass harvested,"[1]; plants treated with 500 ppm 7 days after transplantation, control ca. 16 g",ca. 22 g
same,increase of total HA yield per plant,[2]; versus control (non-treated) plants,45-50%
same,yield of HA per g fresh weight,"[2]; control less than 200,000 units (FIG. 10)","more than 300,000 units per g fresh weight"
